{"source": "patent US7332522B2", "about": "“Liver function protecting or ameliorating agent” (Kyowa Hakko Kogyo Co., Ltd., priority 2001, dated 2008)", "key": {"mast cells": {"tested_on": "mast cells", "details": "at 100 μM; induced by compound 48/80 or calcium ionophore A23187; cited from earlier work"}, "[1]": {"tested_on": "rat skin passive anaphylaxis", "details": "oral administration, cited from earlier work"}, "[2]": {"details": "iron rhodanate method; cited from earlier work"}, "hyaluronidase": {"tested_on": "hyaluronidase", "details": "cited from earlier work"}, "[3]": {"details": "200 mg/kg; cited from earlier work"}, "leukocyte": {"tested_on": "leukocyte", "details": "in vitro; cited from earlier work"}, "[4]": {"tested_on": "rat gastric ulcer induced by ethanol hydrochloride", "details": "75 mg/kg, oral administration; cited from earlier work"}, "rat liver microsome": {"tested_on": "rat liver microsome", "details": "cited from earlier work"}, "[5]": {"tested_on": "Galactosamine-induced Rat Hepatopathy", "assay": "Suppression of galactosamine-induced rat hepatopathy, GPT level in serum", "format": "in vivo, Male Wistar white rats", "details": "15 days, serum 22 h after galactosamine 350 mg/kg i.p., relative to Comparative Example 1 feed = 100%, average ± standard error", "procedure": "Male Wistar white rats (150±20 g, purchased from Japan SLC) were kept for at least 3 days under a fixed condition (temperature: 24±2° C., humidity: 60±5%, light and dark interval: 12 hours) for adaptation, and then fed respectively with the feeds produced in Examples 4-8 and the feed produced in Comparative Example 1 for 15 days. On the 14th day, 350 mg/kg of galactosamine (dissolved in physiological saline at a concentration of 35 mg/ml, and adjusted to pH 7.1) was intraperitoneally administered to each rat. Twenty-two hours after the administration of galactosamine, each of the rats was subjected to laparotomy under anesthesia with Nembutal and blood was collected.\nUsing thus obtained blood samples, blood GPT activity was measured as an indication of a liver function in the following manner. The collected blood was coagulated and separated by centrifugation to obtain a serum. The GPT level in the serum was measured using Fuji Drychem System 3500 (manufactured by Fuji Photo Film Co., Ltd.) with thus obtained serum. The GPT activity of each test group was calculated as the relative value (%) from the value obtained for each Example based on the value obtained for the feed in Comparative Example 1 expressed as 100%. The value is expressed in terms of average value±standard error and the statistical test of significance was carried out by Student's T-test."}, "[6]": {"tested_on": "Staphylococcus epidemidis", "details": "at 1000 ppm; cited from earlier work"}, "Staphylococcus aureus": {"tested_on": "Staphylococcus aureus", "details": "at 1000 ppm; cited from earlier work"}}, "note": "Like-named read-outs stand apart in the source and are kept apart here."}
{"compound": "O=C1O[C@H]([C@@H](O)c2ccc(O)cc2)c2cccc(O)c21", "note": "[hydramacrophyllol A, reference compound]", "values": [{"measurement": "suppression of release of histamine from mast cells", "setting": "mast cells", "result": "not suppressed"}]}
{"compound": "O=C1O[C@@H]([C@@H](O)c2ccc(O)cc2)c2cccc(O)c21", "note": "[hydramacrophyllol B, reference compound]", "values": [{"measurement": "suppression of release of histamine from mast cells", "setting": "mast cells", "result": "not suppressed"}]}
{"compound": "O=C1OC(c2ccc(O)cc2)Cc2cccc(OC3OC(CO)C(O)C(O)C3O)c21", "note": "(stereo not shown) [hydrangenol 8-O-glucoside]", "values": [{"measurement": "suppression of rat skin passive anaphylaxis", "setting": "[1]; 300 and 500 mg/kg", "result": "suppress"}, {"measurement": "suppression of release of histamine from mast cells", "setting": "mast cells", "result": "not suppressed"}]}
{"compound": "O=C1OC(c2ccc(O)cc2)Cc2cccc(O)c21", "note": "(stereo not shown) [hydrangenol]", "values": [{"measurement": "suppression of rat skin passive anaphylaxis", "setting": "[1]; 500 mg/kg", "result": "suppress"}, {"measurement": "suppressive activity on linoleic acid oxidation", "setting": "[2]", "result": "weak suppressive activity"}, {"measurement": "hyaluronidase inhibitory activity", "setting": "hyaluronidase", "result": "hyaluronidase inhibitory activity"}, {"measurement": "cholagogic activity", "setting": "[3]", "result": "do not exhibit this activity"}, {"measurement": "concentration active in differentiation-inducing activity on leukocyte", "setting": "leukocyte", "result": 300, "unit": "µM"}, {"measurement": "suppression of rat gastric ulcer induced by ethanol hydrochloride", "setting": "[4]", "result": "do not suppress"}, {"measurement": "suppression of release of histamine from mast cells", "setting": "mast cells", "result": "not suppressed"}, {"measurement": "suppressive activity on NADPH dependent lipid peroxidation", "setting": "rat liver microsome", "result": "weak suppressive activity"}, {"measurement": "GPT activity (%)", "setting": "[5]; feed of Example 7, hydrangenol 0.324% in feed", "result": "64.6 ± 116.5", "unit": "%"}, {"measurement": "GPT activity (%)", "setting": "[5]; feed of Example 8, hydrangenol 0.108% in feed", "result": "27.8 ± 45.4", "unit": "%"}]}
{"compound": "COc1ccc(C2Cc3cccc(OC4OC(CO)C(O)C(O)C4O)c3C(=O)O2)cc1O", "note": "(stereo not shown) [phyllodulcin 8-O-glucoside]", "values": [{"measurement": "suppression of rat skin passive anaphylaxis", "setting": "[1]; 300 and 500 mg/kg", "result": "suppress"}, {"measurement": "suppression of release of histamine from mast cells", "setting": "mast cells", "result": "not suppressed"}]}
{"compound": "COc1ccc([C@H]2Cc3cccc(O)c3C(=O)O2)cc1O", "note": "[phyllodulcin]", "values": [{"measurement": "suppression of rat skin passive anaphylaxis", "setting": "[1]; 300 and 500 mg/kg", "result": "does not suppress"}, {"measurement": "suppressive activity on linoleic acid oxidation", "setting": "[2]", "result": "more potent suppressive activity than α-tocopherol or BHA"}, {"measurement": "proliferation suppressive activity", "setting": "[6]", "result": "proliferation suppressive activity"}, {"measurement": "cholagogic activity", "setting": "[3]", "result": "do not exhibit this activity"}, {"measurement": "concentration active in differentiation-inducing activity on leukocyte", "setting": "leukocyte", "result": 300, "unit": "µM"}, {"measurement": "suppression of rat gastric ulcer induced by ethanol hydrochloride", "setting": "[4]", "result": "do not suppress"}, {"measurement": "proliferation suppressive activity", "setting": "Staphylococcus aureus", "result": "proliferation suppressive activity"}, {"measurement": "suppression of release of histamine from mast cells", "setting": "mast cells", "result": "not suppressed"}, {"measurement": "suppressive activity on NADPH dependent lipid peroxidation", "setting": "rat liver microsome", "result": "suppressive activity at a similar level to α-tocopherol"}, {"measurement": "GPT activity (%)", "setting": "[5]; feed of Example 4, phyllodulcin 0.366% in feed", "result": "11.8 ± 18.0", "unit": "%"}, {"measurement": "GPT activity (%)", "setting": "[5]; feed of Example 5, phyllodulcin 0.122% in feed", "result": "54.7 ± 32.2", "unit": "%"}, {"measurement": "GPT activity (%)", "setting": "[5]; feed of Example 6, phyllodulcin 0.037% in feed", "result": "52.7 ± 59.9", "unit": "%"}]}
{"compound": "O=c1oc(-c2ccc(O)c(O)c2)cc2cccc(O)c12", "note": "[thunberginol A]", "values": [{"measurement": "suppression of rat skin passive anaphylaxis", "setting": "[1]; 300 and 500 mg/kg", "result": "suppress"}, {"measurement": "concentration active in differentiation-inducing activity on leukocyte", "setting": "leukocyte", "result": 100, "unit": "µM"}]}
{"compound": "O=C1O/C(=C\\c2ccc(O)c(O)c2)c2cccc(O)c21", "note": "[thunberginol F, reference compound]", "values": [{"measurement": "suppression of rat skin passive anaphylaxis", "setting": "[1]; 300 and 500 mg/kg", "result": "suppress"}]}
